Measurements taken from the supplement of paper PMC7017272.
± gives the standard deviation of the averaged measurements.

What was measured:
Conditions in all cases: treatment time: 3 days
UT-SCC-24A = experiment: drug sensitivity score (DSS); higher = more sensitive
Experimental: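 HNSCC cell lines (500 cells/well, 384-well) were cultured on plastic, on top of (2D) or embedded (3D) in Matrigel or human leiomyoma matrix Myogel (500 ug/mL; Myogel 3D mixed with rat collagen I). Cells were treated for 3 days with 5 ten-fold concentrations of each drug, and viability was read by CellTiter-Glo. Suffixes _1/_2/_3 on drug names are replicates.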

UT-SCC-106A [1] = experiment: maximal % inhibition of viability relative to DMSO; higher = stronger effect
Experimental: (§1)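 HNSCC cell lines (500 cells/well, 384-well) were cultured on plastic, on top of (2D) or embedded (3D) in Matrigel or human leiomyoma matrix Myogel (500 ug/mL; Myogel 3D mixed with rat collagen I). Cells were treated for 3 days with 5 ten-fold concentrations of each drug, and viability was read by CellTiter-Glo. Viability was normalised to DMSO and benzethonium chloride controls and fitted with the FIMM DSRT pipeline to give IC50 (nM), maximal % inhibition and DSS. Suffixes _1/_2/_3 are replicates. Only inhibition-mode (IC50) fits are kept.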

UT-SCC-14 [2] = experiment: as above
Experimental: as §1

UT-SCC-24B [3] = experiment: as above
Experimental: as §1

UT-SCC-28 = experiment: as above
Experimental: as §1

UT-SCC-40 [4] = experiment: as above
Experimental: as §1

UT-SCC-42A = experiment: as above
Experimental: as §1

UT-SCC-42B [5] = experiment: as above
Experimental: as §1

UT-SCC-44 [6] = experiment: as above
Experimental: as §1

UT-SCC-73 [7] = experiment: as above
Experimental: as §1

UT-SCC-81 = experiment: as above
Experimental: as §1

UT-SCC-8 [8] = experiment: as above
Experimental: as §1

UT-SCC-106A [9] = experiment: relative IC50 (midpoint of the fitted curve; maximal inhibition may be below 50%); higher = less potent
Procedure, shortened: (§2)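 Viability was read with CellTiter-Glo 2.0 luminescence and scaled against vehicle (0.1% DMSO) and cell-killing control wells. The assay used HPV-negative HNSCC cell lines at 500 cells/well in 384-well plates, grown on plastic, on Matrigel or Myogel coatings (500 µg/mL), or embedded in Matrigel or Myogel plus rat collagen I, and treated for 3 days at five 10-fold concentrations. IC50, maximal inhibition and drug sensitivity score were derived from percent-inhibition dose–response curves fitted in the FIMM pipeline.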

UT-SCC-14 [10] = experiment: as above
Procedure, shortened: as §2

UT-SCC-24B [11] = experiment: as above
Procedure, shortened: as §2

UT-SCC-40 [12] = experiment: as above
Procedure, shortened: as §2

UT-SCC-42B [13] = experiment: as above
Procedure, shortened: as §2

UT-SCC-44 [14] = experiment: as above
Procedure, shortened: as §2

UT-SCC-73 [15] = experiment: as above
Procedure, shortened: as §2

UT-SCC-8 [16] = experiment: as above
Procedure, shortened: as §2

[17] = culture condition: embedded in Matrigel
[18] = culture condition: embedded in Myogel + collagen I
[19] = culture condition: on top of Matrigel
[20] = culture condition: on top of Myogel
[21] = culture condition: plastic 2D (no matrix)

relative IC50 (UT-SCC-106A [9]; [17]): 4.51 nM | relative IC50 (UT-SCC-106A [9]; [18]): 10.1 nM | relative IC50 (UT-SCC-106A [9]; [19]): 5.7 nM | relative IC50 (UT-SCC-106A [9]; [20]): 15.6 nM | relative IC50 (UT-SCC-106A [9]; [21]): 5.69 nM | relative IC50 (UT-SCC-14 [10]; [17]): 5.67 nM | relative IC50 (UT-SCC-14 [10]; [19]): 8.29 nM | relative IC50 (UT-SCC-14 [10]; [20]): 11.2 nM | relative IC50 (UT-SCC-14 [10]; [21]): 6.77 nM | relative IC50 (UT-SCC-24B [11]; [17]): 11 nM | relative IC50 (UT-SCC-24B [11]; [18]): 9.4 nM | relative IC50 (UT-SCC-24B [11]; [19]): 11.6 nM | relative IC50 (UT-SCC-24B [11]; [20]): 15.8 nM | relative IC50 (UT-SCC-24B [11]; [21]): 12.8 nM | relative IC50 (UT-SCC-40 [12]; [17]): 5.31 nM | relative IC50 (UT-SCC-40 [12]; [18]): 9.86 nM | relative IC50 (UT-SCC-40 [12]; [19]): 5.3 nM | relative IC50 (UT-SCC-40 [12]; [20]): 12.9 nM | relative IC50 (UT-SCC-40 [12]; [21]): 11.7 nM | relative IC50 (UT-SCC-42B [13]; [17]): 6.88 nM | relative IC50 (UT-SCC-42B [13]; [19]): 19.3 nM | relative IC50 (UT-SCC-42B [13]; [20]): 36.6 nM | relative IC50 (UT-SCC-42B [13]; [21]): 31.4 nM | relative IC50 (UT-SCC-44 [14]; [18]): 10.4 nM | relative IC50 (UT-SCC-44 [14]; [19]): 5.9 nM | relative IC50 (UT-SCC-44 [14]; [20]): 9.17 nM | relative IC50 (UT-SCC-44 [14]; [21]): 14.4 nM | relative IC50 (UT-SCC-73 [15]; [17]): 6.73 nM | relative IC50 (UT-SCC-73 [15]; [19]): 6.72 nM | relative IC50 (UT-SCC-73 [15]; [20]): 9.27 nM | relative IC50 (UT-SCC-73 [15]; [21]): 8.51 nM | relative IC50 (UT-SCC-8 [16]; [17]): 5.05 nM | relative IC50 (UT-SCC-8 [16]; [19]): 7.5 nM | relative IC50 (UT-SCC-8 [16]; [20]): 8.01 nM | relative IC50 (UT-SCC-8 [16]; [21]): 6.97 nM
Compound: COc1ncc(-c2ccc3nccc(-c4ccnnc4)c3c2)cc1NS(=O)(=O)c1ccc(F)cc1F [Omipalisib]
drug sensitivity score (UT-SCC-24A; [17]): 27 ± 2.8 DSS | drug sensitivity score (UT-SCC-24A; [18]): 22.6 ± 1.6 DSS | drug sensitivity score (UT-SCC-24A; [19]): 25.5 ± 1.2 DSS | drug sensitivity score (UT-SCC-24A; [20]): 20.4 ± 1.8 DSS | drug sensitivity score (UT-SCC-24A; [21]): 25 ± 1.6 DSS | maximal % inhibition of viability (UT-SCC-106A [1]; [17]): 79.7 ± 2.2% | maximal % inhibition of viability (UT-SCC-106A [1]; [18]): 64.2 ± 3.3% | maximal % inhibition of viability (UT-SCC-106A [1]; [19]): 81.2 ± 0.87% | maximal % inhibition of viability (UT-SCC-106A [1]; [20]): 69.7 ± 2.8% | maximal % inhibition of viability (UT-SCC-106A [1]; [21]): 81.53 ± 0.67% | maximal % inhibition of viability (UT-SCC-14 [2]; [17]): 94.8 ± 1.1% | maximal % inhibition of viability (UT-SCC-14 [2]; [18]): 92.2 ± 1.3% | maximal % inhibition of viability (UT-SCC-14 [2]; [19]): 93.9 ± 1.9% | maximal % inhibition of viability (UT-SCC-14 [2]; [20]): 90 ± 2.3% | maximal % inhibition of viability (UT-SCC-14 [2]; [21]): 92.47 ± 0.81% | maximal % inhibition of viability (UT-SCC-24B [3]; [17]): 95.6 ± 0.79% | maximal % inhibition of viability (UT-SCC-24B [3]; [18]): 96.6 ± 1.4% | maximal % inhibition of viability (UT-SCC-24B [3]; [19]): 94.8 ± 1.3% | maximal % inhibition of viability (UT-SCC-24B [3]; [20]): 92 ± 1.2% | maximal % inhibition of viability (UT-SCC-24B [3]; [21]): 96.27 ± 0.55% | maximal % inhibition of viability (UT-SCC-28; [17]): 60.7 ± 5.8% | maximal % inhibition of viability (UT-SCC-28; [18]): 83 ± 5.5% | maximal % inhibition of viability (UT-SCC-28; [19]): 64.3 ± 4.8% | maximal % inhibition of viability (UT-SCC-28; [21]): 60.8 ± 3.6% | maximal % inhibition of viability (UT-SCC-40 [4]; [17]): 98.67 ± 0.4% | maximal % inhibition of viability (UT-SCC-40 [4]; [18]): 89.9 ± 0.76% | maximal % inhibition of viability (UT-SCC-40 [4]; [19]): 96.4 ± 1.7% | maximal % inhibition of viability (UT-SCC-40 [4]; [20]): 85.8 ± 1.6% | maximal % inhibition of viability (UT-SCC-40 [4]; [21]): 88.4 ± 2% | maximal % inhibition of viability (UT-SCC-42A; [17]): 97.27 ± 0.59% | maximal % inhibition of viability (UT-SCC-42A; [18]): 87.8 ± 1.7% | maximal % inhibition of viability (UT-SCC-42A; [19]): 96.13 ± 0.86% | maximal % inhibition of viability (UT-SCC-42A; [20]): 90.83 ± 0.76% | maximal % inhibition of viability (UT-SCC-42A; [21]): 92.7 ± 1.3% | maximal % inhibition of viability (UT-SCC-42B [5]; [17]): 96.3 ± 0.7% | maximal % inhibition of viability (UT-SCC-42B [5]; [19]): 91.1 ± 1.4% | maximal % inhibition of viability (UT-SCC-42B [5]; [20]): 84 ± 1.2% | maximal % inhibition of viability (UT-SCC-42B [5]; [21]): 86.7 ± 1.1% | maximal % inhibition of viability (UT-SCC-44 [6]; [17]): 52.5 ± 1.9% | maximal % inhibition of viability (UT-SCC-44 [6]; [18]): 58.5 ± 5.7% | maximal % inhibition of viability (UT-SCC-44 [6]; [19]): 54.8 ± 4.2% | maximal % inhibition of viability (UT-SCC-44 [6]; [20]): 62.1 ± 5.8% | maximal % inhibition of viability (UT-SCC-44 [6]; [21]): 56 ± 3.9% | maximal % inhibition of viability (UT-SCC-73 [7]; [17]): 91.2 ± 0.27% | maximal % inhibition of viability (UT-SCC-73 [7]; [18]): 89.6 ± 3.3% | maximal % inhibition of viability (UT-SCC-73 [7]; [19]): 90.7 ± 1.4% | maximal % inhibition of viability (UT-SCC-73 [7]; [20]): 90 ± 1.3% | maximal % inhibition of viability (UT-SCC-73 [7]; [21]): 87.9 ± 1.4% | maximal % inhibition of viability (UT-SCC-81; [17]): 97.77 ± 0.51% | maximal % inhibition of viability (UT-SCC-81; [18]): 89.1 ± 0.91% | maximal % inhibition of viability (UT-SCC-81; [19]): 96.83 ± 0.76% | maximal % inhibition of viability (UT-SCC-81; [20]): 90.3 ± 1.4% | maximal % inhibition of viability (UT-SCC-81; [21]): 91.9 ± 2.2% | maximal % inhibition of viability (UT-SCC-8 [8]; [17]): 99.57 ± 0.25% | maximal % inhibition of viability (UT-SCC-8 [8]; [18]): 98.2 ± 0.56% | maximal % inhibition of viability (UT-SCC-8 [8]; [19]): 98.5 ± 1.1% | maximal % inhibition of viability (UT-SCC-8 [8]; [20]): 96.8 ± 1% | maximal % inhibition of viability (UT-SCC-8 [8]; [21]): 97.87 ± 0.61%
